Laboratory results reported in US20040248859A1, “Medicinal compositions for treating secondary parathyroid hyperfunction and remedies for cardiovascular complications in association with treatment for secondary parathyroid hyperfunction” (priority 2001, published 2004).

Key:
[1] = tested on: 5/6 nephrectomized rats (kidney failure model with 2HPT); test: Parathyroid hormone levels in blood (serum PTH, radioimmunoassay) of 5/6 nephrectomized rats; assay type: in vivo, rat; conditions: for effect on serum PTH levels: all doses (OCT 1.25 and 6.25 μg/kg, 1,25(OH)2D3 0.125 and 0.625 μg/kg), versus SNX control
Text: (§1) Rats with 5/6 nephrectomy (5/6 nephrectomized rats) were used as an experimental model to examine the agent of the present invention for its effect on cardiovascular complications. Such 5/6 nephrectomized rats are widely used as an experimental nephritis model with 2HPT (Ichikawa et al., Nephrology, vol. 4, pp. 391-395, 1998).
(§2) Seven-week-old male SD rats (Japan SLC, Inc.) were subjected to 5/6 nephrectomy according to the method of Platt et al. (Platt R. et al., Clin. Sci. 11, 217-231, 1952) to remove the whole of the right kidney and 2/3 of the left kidney. The rats were then allowed to rest for 10 weeks to create a kidney failure model with 2HPT.
(§3) The nephrectomized rats were divided into 4 test groups: OCT 1.25 μg/kg group (8 rats), OCT 6.25 μg/kg group (8 rats), 1,25(OH)2D3 0.125 μg/kg group (8 rats) and 1,25(OH)2D3 0.625 μg/kg group (8 rats).
Starting at 10 weeks after surgery, the rats of each group were administered with a given dose of OCT or 1,25-dihydroxyvitamin D3 (each dissolved in phosphate buffer, pH 6.52) via the tail vein. Administration was conducted three times a week for a total of 7 administration (i.e., on Monday, Wednesday, Friday, Monday, Wednesday, Friday and Monday). Twenty-four hours after the last administration, the blood was collected from the abdominal descending aorta of each rat under ether anesthesia. The rats were then sacrificed by exsanguination and the heart and aorta were excised from each rat. […]
After serum was separated from the collected blood, the level of parathyroid hormone (PTH) contained in the serum was measured with a commercially available radioimmunoassay kit (Immutopics, Inc., USA).
(§4) The relationship between Sham control group and SNX control group was analyzed by unpaired t-test. The relationship between SNX control group and each OCT- or 1,25(OH)2D3-administered group was analyzed by Dunnett's multiple comparison test.

[2] = in vivo; cited from earlier work
[3] = tested on: 5/6 nephrectomized rats (kidney failure model with 2HPT); test: Ca and Pi in serum (serum Ca×Pi product) of 5/6 nephrectomized rats; assay type: in vivo, rat; conditions: for serum Ca×Pi product over the SNX control group: three times a week, 7 administrations
Text: as §1, §2, §3
(§5) Starting at 10 weeks after surgery, the rats of each group were administered with a given dose of OCT or 1,25-dihydroxyvitamin D3 (each dissolved in phosphate buffer, pH 6.52) via the tail vein. Administration was conducted three times a week for a total of 7 administration (i.e., on Monday, Wednesday, Friday, Monday, Wednesday, Friday and Monday). Twenty-four hours after the last administration, the blood was collected from the abdominal descending aorta of each rat under ether anesthesia. The rats were then sacrificed by exsanguination and the heart and aorta were excised from each rat.
(§6) Six rats of sham-operated (Sham control) group were subjected to renal decapsulation alone instead of 5/6 nephrectomy and then treated in the same manner as used for the test groups, except that phosphate buffer (Ph 6.52) was administered instead of OCT or 1,25-dihydroxyvitamin D3. Likewise, 9 rats of SNX control group were treated in the same manner as used for the test groups, except that phosphate buffer (pH 6.52) was administered instead of OCT or 1,25-dihydroxyvitamin D3.
2. Ca and Pi in serum After serum was separated from the collected blood, Ca and Pi contained in the serum were measured with a Hitachi 7170-E autoanalyzer using an Autosera reagent (Daiichi Pure Chemicals Co., Ltd.) to determine the serum Ca×Pi product for each rat.
as §4

[4] = tested on: 5/6 nephrectomized rats (kidney failure model with 2HPT); test: Ca and Pi contents in individual organs (aorta and heart) of 5/6 nephrectomized rats; assay type: in vivo, rat
Text: as §1, §2, §3, §5, §6
Each heart and aorta were lyophilized for 24 hours in a FREEZE DRYER FD-5N (trade name, EYELA) and then treated for 48 hours with a chloroform/methanol solution (chloroform:methanol=2:1, special-reagent-grade chloroform and methanol were both purchased from Junsei Chemical Co., Ltd.). Subsequently, each organ was dehydrated for 3 hours with acetone (special reagent grade, Junsei Chemical Co., Ltd.) and then allowed to stand at room temperature for 24 hours. After delipidization and dehydration, each organ was transferred to a crucible and weighed to determine dry weight (Mettler). Ashing was carried out in a muffle furnace KDF S90 (trade name, Denken Co., Ltd., Kyoto, Japan) at 900° C. for 12 hours. The ashed sample was mixed with […] hydrochloric acid (1.0 mL), allowed to stand for 3 hours to dissolve sufficiently, and then collected in a polypropylene tube. The crucible was washed with purified water (1.0 mL), which was then also collected in the tube. Each sample was stored at 4° C. until measurement. Ca and Pi were measured with a Hitachi 7170-E autoanalyzer to calculate the Ca and Pi contents per gram of each organ.
as §4

[5] = 5/6 nephrectomized rats, via tail vein
[6] = 1,25(OH)2D3 0.125 μg/kg group versus OCT 6.25 μg/kg group (almost the same serum Ca×Pi product)

Row | Compound | dose at which the therapeutic effect on secondary hyperparathyroidism (decreasing effect on PTH levels) can be produced [1, 5] | effect on serum PTH levels [1] | blood half-life [2] | serum Ca×Pi product over the SNX control group ([3]; 0.125 μg/kg via tail vein) | serum Ca×Pi product over the SNX control group ([3]; 0.625 μg/kg via tail vein, 24 h after last administration, p<0.001) | minimum dose required to produce an elevating action on Ca×Pi product [3, 5] | serum Ca×Pi product, comparison of the two groups ([3]; OCT 6.25 μg/kg group versus 1,25(OH)2D3 0.125 μg/kg group) | Ca content in the aorta over the SNX control group ([4]; 0.125 and 0.625 μg/kg, p<0.001) | Ca content in the heart over the SNX control group ([4]; 0.125 and 0.625 μg/kg, p<0.001) | Pi content in the aorta over the SNX control group ([4]; 0.125 and 0.625 μg/kg, p<0.001) | Pi content in the heart over the SNX control group ([4]; 0.125 and 0.625 μg/kg, p<0.001) | deposition of Ca in the aorta as compared to OCT [4, 6] | deposition of Pi in the aorta as compared to OCT [4, 6] | deposition of Pi in the heart as compared to OCT ([4]; 1,25(OH)2D3 0.125 μg/kg group versus OCT 6.25 μg/kg group, p<0.01) | deposition of Ca in the heart as compared to OCT ([4]; 1,25(OH)2D3 0.125 μg/kg group versus OCT 6.25 μg/kg group, p<0.05) | blood calcium levels ([3]; rat, in vivo) | deposition of Ca and Pi in the aorta and heart, OCT-administered groups versus 1,25(OH)2D3-administered groups ([4]; rat, in vivo)
1 | C=C1/C(=C\C=C2/CCC[C@]3(C)[C@@H]([C@H](C)CCCC(C)(C)O)CC[C@@H]23)C[C@@H](O)C[C@@H]1O [1,25-dihydroxyvitamin D3] | 0.125 µg/kg | decreasing effect on PTH levels at all doses | ≥ 1 h | no significant elevation | significant elevation | 0.625 µg/kg | almost the same level | dose-dependent significant increases | dose-dependent significant increases | dose-dependent significant increases | dose-dependent significant increases | apparently higher deposition | apparently higher deposition | significantly higher deposition | significantly higher deposition |  | 
2 | C=C1/C(=C\C=C2/CCC[C@]3(C)[C@@H]([C@H](C)OCCC(C)(C)O)CC[C@@H]23)C[C@@H](O)C[C@@H]1O [OCT, 1α,3β-dihydroxy-20S-(3-hydroxy-3-methylbutyloxy)-9,10-seco-5,7,10(19)-pregnatriene] |  | decreasing effect on PTH levels at all doses | about 20 minutes |  |  |  |  |  |  |  |  |  |  |  |  | does not cause increase | significantly lower deposition
